Data published in patent US12077503B2, “Substituted cyclic amides and their use as herbicides” (FMC CORPORATION, priority 2015, dated 2024).

Tests used:
Assay type in all cases: in vivo
[1] = test system: giant foxtail (Setaria faberii); experiment: Test A postemergence; conditions: Setaria faberi, post-emergence, 240 h, Postemergence, read-out: Foxtail, Giant plant response rating (0 to 100 scale); for pest or weed control at 125 g/ha: 125 g ai/ha, visual rating about 10 d after treatment; for pest or weed control at 31 g/ha: 31 g ai/ha, 0 is no effect, 100 is complete control
Procedure, shortened: (§1)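 Seeded soil received test chemicals as a preemergence directed spray, and seedlings at one to two leaves, 2–10 cm tall, received them postemergence, in a non-phytotoxic, surfactant-containing solvent mixture. Pots were held in a greenhouse for approximately 10 d, then rated for injury from 0, no effect, to 100, complete control.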

[2] = test system: barnyardgrass (Echinochloa crus-galli); experiment: Test A postemergence; conditions: Echinochloa crus-galli, post-emergence, 240 h, Postemergence; for pest or weed control at 125 g/ha: 125 g ai/ha, visual rating about 10 d after treatment, read-out: Barnyardgrass plant response rating (0 to 100 scale, 0 no effect, 100 complete control); for pest or weed control at 31 g/ha: 31 g ai/ha, 0 is no effect, 100 is complete control, read-out: Barnyardgrass plant response rating (0 to 100 scale)
Procedure, shortened: as §1

[3] = test system: wheat (Triticum aestivum); experiment: Test A postemergence; conditions: Triticum aestivum, post-emergence, 240 h, Postemergence, read-out: Wheat plant response rating (0 to 100 scale); for plant injury at 125 g/ha: 125 g ai/ha, visual rating about 10 d after treatment; for plant injury at 31 g/ha: 31 g ai/ha, 0 is no effect, 100 is complete control
Procedure, shortened: as §1

[4] = test system: ragweed (common ragweed, Ambrosia elatior); experiment: Test A postemergence; conditions: Ambrosia artemisiifolia, post-emergence, 240 h, Postemergence, read-out: Ragweed plant response rating (0 to 100 scale); for pest or weed control at 125 g/ha: 125 g ai/ha, visual rating about 10 d after treatment; for pest or weed control at 31 g/ha: 31 g ai/ha, 0 is no effect, 100 is complete control
Procedure, shortened: as §1

Kochia (Kochia scoparia) [5] = experiment: Test A postemergence; conditions: Bassia scoparia, post-emergence, 240 h, Postemergence, read-out: Kochia plant response rating (0 to 100 scale); for pest or weed control at 125 g/ha: 125 g ai/ha, visual rating about 10 d after treatment; for pest or weed control at 31 g/ha: 31 g ai/ha, 0 is no effect, 100 is complete control
Procedure, shortened: as §1

[6] = test system: Galium (catchweed bedstraw, Galium aparine); experiment: Test A postemergence; conditions: Galium, post-emergence, 240 h, Postemergence, read-out: Galium plant response rating (0 to 100 scale); for pest or weed control at 125 g/ha: 125 g ai/ha, visual rating about 10 d after treatment; for pest or weed control at 31 g/ha: 31 g ai/ha, 0 is no effect, 100 is complete control
Procedure, shortened: as §1

[7] = test system: pigweed (Amaranthus retroflexus); experiment: Test A postemergence; conditions: Amaranthus retroflexus, post-emergence, 240 h, Postemergence, read-out: Pigweed plant response rating (0 to 100 scale); for pest or weed control at 125 g/ha: 125 g ai/ha, visual rating about 10 d after treatment; for pest or weed control at 31 g/ha: 31 g ai/ha, 0 is no effect, 100 is complete control
Procedure, shortened: as §1

[8] = test system: blackgrass (Alopecurus myosuroides); experiment: Test A postemergence; conditions: Alopecurus myosuroides, post-emergence, 240 h, Postemergence, read-out: Blackgrass plant response rating (0 to 100 scale); for pest or weed control at 125 g/ha: 125 g ai/ha, visual rating about 10 d after treatment; for pest or weed control at 31 g/ha: 31 g ai/ha, 0 is no effect, 100 is complete control
Procedure, shortened: as §1

corn (Zea mays) = experiment: Test A postemergence; conditions: Zea mays, post-emergence, 240 h, Postemergence, read-out: Corn plant response rating (0 to 100 scale); for plant injury at 125 g/ha: 125 g ai/ha, visual rating about 10 d after treatment; for plant injury at 31 g/ha: 31 g ai/ha, 0 is no effect, 100 is complete control
Procedure, shortened: as §1

[9] = test system: ryegrass, Italian (Italian ryegrass, Lolium multiflorum); experiment: Test A postemergence; conditions: Lolium multiflorum, post-emergence, 240 h, Postemergence, read-out: Ryegrass, Italian plant response rating (0 to 100 scale); for pest or weed control at 125 g/ha: 125 g ai/ha, visual rating about 10 d after treatment; for pest or weed control at 31 g/ha: 31 g ai/ha, 0 is no effect, 100 is complete control
Procedure, shortened: as §1

[10] = test system: barnyardgrass (Echinochloa crus-galli); experiment: Test B flooded paddy test; conditions: Echinochloa crus-galli, 250 g ai/ha, Flood; 0 to 100 scale where 0 is no effect and 100 is complete control; read-out: Barnyardgrass plant response rating
Procedure, shortened: (§2)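 Flooding to 3 cm over soil accompanied treatment, which consisted of adding compound to the standing water around 2-leaf plants; depth was then maintained. Visual assessment versus controls followed at 13 to 15 d (scale 0–100, 0 meaning no effect).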

rice (Oryra sativa) = experiment: Test B flooded paddy test; conditions: Oryza sativa, 250 g ai/ha, Flood; 0 to 100 scale where 0 is no effect and 100 is complete control; read-out: Rice plant response rating
Procedure, shortened: as §2

[11] = test system: ducksalad (Heteranthera limosa); experiment: Test B flooded paddy test; conditions: Heteranthera limosa, 250 g ai/ha, Flood; 0 to 100 scale where 0 is no effect and 100 is complete control; read-out: Ducksalad plant response rating
Procedure, shortened: as §2

[12] = test system: sedge, umbrella (small-flower umbrella sedge, Cyperus difformis); experiment: Test B flooded paddy test; conditions: Cyperus difformis, 250 g ai/ha, Flood; 0 to 100 scale where 0 is no effect and 100 is complete control; read-out: Sedge, Umbrella plant response rating
Procedure, shortened: as §2

[13] = test system: giant foxtail (Setaria faberii); experiment: Test A preemergence; conditions: Setaria faberi, pre-emergence, 240 h, 0 to 100 scale where 0 is no effect and 100 is complete control, read-out: Foxtail, Giant plant response rating; for pest or weed control at 31 g/ha: 31 g ai/ha, Preemergence; for pest or weed control at 125 g/ha: 125 g ai/ha, preemergence, visual injury rating, approximately 10 d
Procedure, shortened: as §1

[14] = test system: barnyardgrass (Echinochloa crus-galli); experiment: Test A preemergence; conditions: Echinochloa crus-galli, pre-emergence, 240 h, 0 to 100 scale where 0 is no effect and 100 is complete control, read-out: Barnyardgrass plant response rating; for pest or weed control at 31 g/ha: 31 g ai/ha, Preemergence; for pest or weed control at 125 g/ha: 125 g ai/ha, preemergence, visual injury rating, approximately 10 d
Procedure, shortened: as §1

[15] = test system: ragweed (common ragweed, Ambrosia elatior); experiment: Test A preemergence; conditions: Ambrosia artemisiifolia, pre-emergence, 240 h, 0 to 100 scale where 0 is no effect and 100 is complete control, read-out: Ragweed plant response rating; for pest or weed control at 31 g/ha: 31 g ai/ha, Preemergence; for pest or weed control at 125 g/ha: 125 g ai/ha, preemergence, visual injury rating, approximately 10 d
Procedure, shortened: as §1

Kochia (Kochia scoparia) [16] = experiment: Test A preemergence; conditions: Bassia scoparia, pre-emergence, 240 h, 0 to 100 scale where 0 is no effect and 100 is complete control, read-out: Kochia plant response rating; for pest or weed control at 31 g/ha: 31 g ai/ha, Preemergence; for pest or weed control at 125 g/ha: 125 g ai/ha, preemergence, visual injury rating, approximately 10 d
Procedure, shortened: as §1

[17] = test system: pigweed (Amaranthus retroflexus); experiment: Test A preemergence; conditions: Amaranthus retroflexus, pre-emergence, 240 h, 0 to 100 scale where 0 is no effect and 100 is complete control, read-out: Pigweed plant response rating; for pest or weed control at 31 g/ha: 31 g ai/ha, Preemergence; for pest or weed control at 125 g/ha: 125 g ai/ha, preemergence, visual injury rating, approximately 10 d
[18] = test system: ryegrass, Italian (Italian ryegrass, Lolium multiflorum); experiment: Test A preemergence; conditions: Lolium multiflorum, pre-emergence, 240 h, 0 to 100 scale where 0 is no effect and 100 is complete control, read-out: Ryegrass, Italian plant response rating; for pest or weed control at 31 g/ha: 31 g ai/ha, Preemergence; for pest or weed control at 125 g/ha: 125 g ai/ha, preemergence, visual injury rating, approximately 10 d
Procedure, shortened: as §1

Structure (SMILES) | pest or weed control at 125 g/ha [1] [%] | pest or weed control at 31 g/ha [1] [%] | pest or weed control at 125 g/ha [2] [%] | pest or weed control at 31 g/ha [2] [%] | plant injury at 125 g/ha [3] [%] | plant injury at 31 g/ha [3] [%] | pest or weed control at 125 g/ha [4] [%] | pest or weed control at 31 g/ha [4] [%] | pest or weed control at 125 g/ha (Kochia (Kochia scoparia) [5]) [%] | pest or weed control at 31 g/ha (Kochia (Kochia scoparia) [5]) [%] | pest or weed control at 125 g/ha [6] [%] | pest or weed control at 31 g/ha [6] [%] | pest or weed control at 125 g/ha [7] [%] | pest or weed control at 31 g/ha [7] [%] | pest or weed control at 125 g/ha [8] [%] | pest or weed control at 31 g/ha [8] [%] | plant injury at 125 g/ha (corn (Zea mays)) [%] | plant injury at 31 g/ha (corn (Zea mays)) [%] | pest or weed control at 125 g/ha [9] [%] | pest or weed control at 31 g/ha [9] [%] | further results
CN1C[C@H](c2cccc(C#N)c2)[C@@H](C(=O)Nc2cccc(F)c2F)C1=O [Compound 1286] | 90 | 70 | 90 | 90 | 0 | 0 | 0 | 0 | 30 | 0 | 40 | 20 | 20 | 0 | 40 | 0 | 80 | 20 | 0 | 0 | pest or weed control at 250 g/ha [10]: 70%; pest or weed control at 250 g/ha (rice (Oryra sativa)): 0%; pest or weed control at 250 g/ha [11]: 95%; pest or weed control at 250 g/ha [12]: 0%; pest or weed control at 31 g/ha [13]: 100%; pest or weed control at 125 g/ha [13]: 100%; pest or weed control at 31 g/ha [14]: 100%; pest or weed control at 125 g/ha [14]: 100%; pest or weed control at 31 g/ha [15]: 0%; pest or weed control at 125 g/ha [15]: 50%; pest or weed control at 31 g/ha (Kochia (Kochia scoparia) [16]): 0%; pest or weed control at 125 g/ha (Kochia (Kochia scoparia) [16]): 60%; pest or weed control at 31 g/ha [17]: 0%; pest or weed control at 125 g/ha [17]: 20%; pest or weed control at 31 g/ha [18]: 20%; pest or weed control at 125 g/ha [18]: 60%
Cc1ccc([C@H]2CN(C)C(=O)[C@@H]2C(=O)Nc2ccccc2)cc1 [Compound 1291] | 80 | 70 | 90 | 70 | 30 | 0 | 0 | 0 | 0 | 0 | 20 | 0 | 0 | 0 | 0 | 0 | 30 | 0 | 0 | 0 | pest or weed control at 250 g/ha [10]: 90%; pest or weed control at 250 g/ha (rice (Oryra sativa)): 30%; pest or weed control at 250 g/ha [11]: 100%; pest or weed control at 250 g/ha [12]: 0%; pest or weed control at 31 g/ha [13]: 100%; pest or weed control at 125 g/ha [13]: 100%; pest or weed control at 31 g/ha [14]: 100%; pest or weed control at 125 g/ha [14]: 100%; pest or weed control at 31 g/ha [15]: 0%; pest or weed control at 125 g/ha [15]: 0%; pest or weed control at 31 g/ha (Kochia (Kochia scoparia) [16]): 0%; pest or weed control at 125 g/ha (Kochia (Kochia scoparia) [16]): 40%; pest or weed control at 31 g/ha [17]: 0%; pest or weed control at 125 g/ha [17]: 100%; pest or weed control at 31 g/ha [18]: 0%; pest or weed control at 125 g/ha [18]: 20%
